Experimental data taken from ChEMBL document CHEMBL4002566, “S-substituted 3,5-dinitrophenyl 1,3,4-oxadiazole-2-thiols and tetrazole-5-thiols as highly efficient antitubercular agents” (Eur J Med Chem, 2017).
Converted amounts (≈) assume the structure as drawn.

Tests used:
Assay type in all cases: functional
[1] = system: Mycobacterium avium; assay: Antimycobacterial activity against Mycobacterium avium CNCTC My 330/88 after 21 days by micromethod; conditions: CNCTC My 330/88, 504 h
[2] = system: Mycobacterium tuberculosis; assay: Antimycobacterial activity against Mycobacterium tuberculosis CNCTC My 331/88 after 14 days by micromethod; conditions: CNCTC My 331/88, 336 h
[3] = system: Mycobacterium avium; assay: Antimycobacterial activity against Mycobacterium avium CNCTC My 330/88 after 14 days by micromethod; conditions: CNCTC My 330/88, 336 h
[4] = system: Mycobacterium kansasii; assay: Antimycobacterial activity against Mycobacterium kansasii CNCTC My 235/80 after 14 days by micromethod; conditions: CNCTC My 235/80, 336 h
[5] = system: Mycobacterium kansasii; assay: Antimycobacterial activity against Mycobacterium kansasii 6509/96 clinical isolate after 14 days by micromethod; conditions: 6509/96, 336 h
[6] = system: Mycobacterium tuberculosis; assay: Antimycobacterial activity against Mycobacterium tuberculosis CNCTC My 331/88 after 21 days by micromethod; conditions: CNCTC My 331/88, 504 h
[7] = system: Mycobacterium kansasii; assay: Antimycobacterial activity against Mycobacterium kansasii CNCTC My 235/80 after 21 days by micromethod; conditions: CNCTC My 235/80, 504 h
[8] = system: Mycobacterium kansasii; assay: Antimycobacterial activity against Mycobacterium kansasii CNCTC My 235/80 after 7 days by micromethod; conditions: CNCTC My 235/80, 168 h
[9] = system: Mycobacterium kansasii; assay: Antimycobacterial activity against Mycobacterium kansasii 6509/96 clinical isolate after 21 days by micromethod; conditions: 6509/96, 504 h
[10] = system: Mycobacterium kansasii; assay: Antimycobacterial activity against Mycobacterium kansasii 6509/96 clinical isolate after 7 days by micromethod; conditions: 6509/96, 168 h
[11] = system: Candida albicans; assay: Antifungal activity against Candida albicans ATCC 44859 after 24 hrs by broth microdilution method; conditions: ATCC 44859, 24 h
[12] = system: Candida tropicalis; assay: Antifungal activity against Candida tropicalis 156 after 24 hrs by broth microdilution method; conditions: Candida tropicalis, 156, 24 h
[13] = system: Pichia kudriavzevii; assay: Antifungal activity against Candida krusei E28 after 24 hrs by broth microdilution method; conditions: E28, 24 h
[14] = system: Nakaseomyces glabratus; assay: Antifungal activity against Candida glabrata 20/I after 24 hrs by broth microdilution method
[15] = system: Trichosporon asahii; assay: Antifungal activity against Trichosporon asahii 1188 after 24 hrs by broth microdilution method; conditions: Trichosporon asahii, 1188, 24 h
[16] = system: Aspergillus fumigatus; assay: Antifungal activity against Aspergillus fumigatus 231 after 24 hrs by broth microdilution method; conditions: Aspergillus fumigatus, 231, 24 h
[17] = system: Lichtheimia corymbifera; assay: Antifungal activity against Absidia corymbifera 272 after 24 hrs by broth microdilution method; conditions: Lichtheimia corymbifera, 272, 24 h
[18] = system: Trichophyton mentagrophytes; assay: Antifungal activity against Trichophyton mentagrophytes 445 after 72 hrs by broth microdilution method; conditions: Trichophyton mentagrophytes, 445, 72 h
[19] = system: Escherichia coli; assay: Antibacterial activity against Escherichia coli ATCC 8739 after 24 hrs by broth microdilution method
[20] = system: Klebsiella pneumoniae; assay: Antibacterial activity against Klebsiella pneumoniae HK11750/08 after 24 hrs by broth microdilution method
[21] = system: Klebsiella pneumoniae; assay: Antibacterial activity against extended spectrum beta-lactamase producing Klebsiella pneumoniae HK14368/08 after 24 hrs by broth microdilution method
[22] = system: Pseudomonas aeruginosa; assay: Antibacterial activity against Pseudomonas aeruginosa ATCC 9027 after 24 hrs by broth microdilution method

| Compound | MIC [1] | MIC [2] | MIC [3] | MIC [4] | MIC [5] | MIC [6] | MIC [7] | MIC [8] | MIC [9] | MIC [10] | further results |
| --- | --- | --- | --- | --- | --- | --- | --- | --- | --- | --- | --- |
| CC(=O)Nc1cc(-c2nnc(SCc3ccc(Br)cc3)o2)cc([N+](=O)[O-])c1 | > 500 µM | > 500 µM | > 500 µM | > 500 µM | > 500 µM | > 500 µM | > 500 µM | > 500 µM | > 500 µM | > 500 µM |  |
| Nc1cc(-c2nnc(SCc3ccc(Br)cc3)o2)cc([N+](=O)[O-])c1 | 125 µM (≈ 50.9 µg/mL) | 125 µM (≈ 50.9 µg/mL) | 125 µM (≈ 50.9 µg/mL) | 125 µM (≈ 50.9 µg/mL) | 125 µM (≈ 50.9 µg/mL) | 125 µM (≈ 50.9 µg/mL) | 125 µM (≈ 50.9 µg/mL) | 125 µM (≈ 50.9 µg/mL) | 125 µM (≈ 50.9 µg/mL) | 125 µM (≈ 50.9 µg/mL) |  |
| C[C@@H]1[C@H](O)[C@@H](C)/C=C/C=C/C=C/C=C/C=C/C=C/C=C/[C@H](O[C@@H]2O[C@H](C)[C@@H](O)[C@H](N)[C@@H]2O)C[C@@H]2O[C@](O)(C[C@@H](O)C[C@@H](O)[C@H](O)CC[C@@H](O)C[C@@H](O)CC(=O)O[C@H]1C)C[C@H](O)[C@H]2C(=O)O [AMPHOTERICIN B] |  |  |  |  |  |  |  |  |  |  | MIC [11]: 0.54 µM (≈ 0.499 µg/mL); MIC [12]: 0.54 µM (≈ 0.499 µg/mL); MIC [13]: 1 µM (≈ 0.924 µg/mL); MIC [14]: 0.54 µM (≈ 0.499 µg/mL); MIC [15]: 0.27 µM (≈ 0.25 µg/mL); MIC [16]: 0.54 µM (≈ 0.499 µg/mL); MIC [17]: 1 µM (≈ 0.924 µg/mL); MIC [18]: 0.54 µM (≈ 0.499 µg/mL) |
| Nc1cc(-c2nnc(SCc3ccccc3)o2)cc([N+](=O)[O-])c1 | 250 µM (≈ 82.1 µg/mL) | 250 µM (≈ 82.1 µg/mL) | 250 µM (≈ 82.1 µg/mL) | 250 µM (≈ 82.1 µg/mL) | 250 µM (≈ 82.1 µg/mL) | 250 µM (≈ 82.1 µg/mL) | 250 µM (≈ 82.1 µg/mL) | 250 µM (≈ 82.1 µg/mL) | 250 µM (≈ 82.1 µg/mL) | 250 µM (≈ 82.1 µg/mL) |  |
| CC(=O)Nc1cc(-c2nnc(SCc3ccccc3)o2)cc([N+](=O)[O-])c1 | > 1000 µM | > 1000 µM | > 1000 µM | > 1000 µM | > 1000 µM | > 1000 µM | > 1000 µM | > 1000 µM | > 1000 µM | > 1000 µM |  |
| CCCSc1nnc(-c2cc([N+](=O)[O-])cc([N+](=O)[O-])c2)o1 | 8 µM (≈ 2.48 µg/mL) | 0.25 µM (≈ 0.0776 µg/mL) | 8 µM (≈ 2.48 µg/mL) | 2 µM (≈ 0.621 µg/mL) | 2 µM (≈ 0.621 µg/mL) | 0.5 µM (≈ 0.155 µg/mL) | 2 µM (≈ 0.621 µg/mL) | 1 µM (≈ 0.31 µg/mL) | 4 µM (≈ 1.24 µg/mL) | 1 µM (≈ 0.31 µg/mL) |  |
| CC(=O)Oc1cc(-c2nnc(SCc3ccc(Cl)c(Cl)c3)o2)cc([N+](=O)[O-])c1 | 1000 µM (≈ 440 µg/mL) | 1000 µM (≈ 440 µg/mL) | 1000 µM (≈ 440 µg/mL) | 1000 µM (≈ 440 µg/mL) | 1000 µM (≈ 440 µg/mL) | 1000 µM (≈ 440 µg/mL) | 1000 µM (≈ 440 µg/mL) | 1000 µM (≈ 440 µg/mL) | 1000 µM (≈ 440 µg/mL) | 1000 µM (≈ 440 µg/mL) |  |
| CC(=O)Nc1cc(-c2nnc(SCc3ccc(Cl)cc3)o2)cc([N+](=O)[O-])c1 | > 1000 µM | 250 µM (≈ 101 µg/mL) | > 1000 µM | > 1000 µM | > 1000 µM | 250 µM (≈ 101 µg/mL) | > 1000 µM | > 1000 µM | > 1000 µM | > 1000 µM |  |
| O=[N+]([O-])c1cc(-c2nnc(SCc3ccccc3)o2)cc([N+](=O)[O-])c1 | 4 µM (≈ 1.43 µg/mL) | 0.5 µM (≈ 0.179 µg/mL) | 4 µM (≈ 1.43 µg/mL) | 0.5 µM (≈ 0.179 µg/mL) | 0.5 µM (≈ 0.179 µg/mL) | 0.5 µM (≈ 0.179 µg/mL) | 0.5 µM (≈ 0.179 µg/mL) | 0.25 µM (≈ 0.0896 µg/mL) | 0.5 µM (≈ 0.179 µg/mL) | 0.25 µM (≈ 0.0896 µg/mL) |  |
| Nc1cc(-c2nnc(SCc3ccc(Cl)cc3)o2)cc([N+](=O)[O-])c1 | 250 µM (≈ 90.7 µg/mL) | 250 µM (≈ 90.7 µg/mL) | 250 µM (≈ 90.7 µg/mL) | 250 µM (≈ 90.7 µg/mL) | 250 µM (≈ 90.7 µg/mL) | 250 µM (≈ 90.7 µg/mL) | 250 µM (≈ 90.7 µg/mL) | 250 µM (≈ 90.7 µg/mL) | 250 µM (≈ 90.7 µg/mL) | 250 µM (≈ 90.7 µg/mL) |  |
| O=[N+]([O-])c1cc(-c2nnc(SCc3ccccc3)o2)cc(C(F)(F)F)c1 | > 250 µM | 1 µM (≈ 0.381 µg/mL) | > 250 µM | 4 µM (≈ 1.53 µg/mL) | 4 µM (≈ 1.53 µg/mL) | 1 µM (≈ 0.381 µg/mL) | 4 µM (≈ 1.53 µg/mL) | 2 µM (≈ 0.763 µg/mL) | 4 µM (≈ 1.53 µg/mL) | 2 µM (≈ 0.763 µg/mL) |  |
| Nc1cc(-c2nnc(SCc3ccc([N+](=O)[O-])cc3)o2)cc([N+](=O)[O-])c1 | 125 µM (≈ 46.7 µg/mL) | 125 µM (≈ 46.7 µg/mL) | 125 µM (≈ 46.7 µg/mL) | 125 µM (≈ 46.7 µg/mL) | 125 µM (≈ 46.7 µg/mL) | 125 µM (≈ 46.7 µg/mL) | 125 µM (≈ 46.7 µg/mL) | 125 µM (≈ 46.7 µg/mL) | 125 µM (≈ 46.7 µg/mL) | 125 µM (≈ 46.7 µg/mL) |  |
| O=[N+]([O-])c1cc(-c2nnc(SC3CCCCC3)o2)cc([N+](=O)[O-])c1 | 32 µM (≈ 11.2 µg/mL) | 0.03 µM (≈ 0.0105 µg/mL) | 16 µM (≈ 5.61 µg/mL) | 0.03 µM (≈ 0.0105 µg/mL) | 0.03 µM (≈ 0.0105 µg/mL) | 0.03 µM (≈ 0.0105 µg/mL) | 0.03 µM (≈ 0.0105 µg/mL) | 0.03 µM (≈ 0.0105 µg/mL) | 0.03 µM (≈ 0.0105 µg/mL) | 0.03 µM (≈ 0.0105 µg/mL) |  |
| GENTAMICIN |  |  |  |  |  |  |  |  |  |  | MIC [19]: 260 nM; MIC [20]: 260 nM; MIC [21]: 260 nM; MIC [22]: 1000 nM |
| O=[N+]([O-])c1cc(-c2nnc(SCc3ccc(Cl)c(Cl)c3)o2)cc(C(F)(F)F)c1 | > 250 µM | 0.5 µM (≈ 0.225 µg/mL) | > 250 µM | 1 µM (≈ 0.45 µg/mL) | 1 µM (≈ 0.45 µg/mL) | 0.5 µM (≈ 0.225 µg/mL) | 1 µM (≈ 0.45 µg/mL) | 0.5 µM (≈ 0.225 µg/mL) | 1 µM (≈ 0.45 µg/mL) | 0.5 µM (≈ 0.225 µg/mL) |  |
| OC(Cn1cncn1)(Cn1cncn1)c1ccc(F)cc1F [FLUCONAZOLE] |  |  |  |  |  |  |  |  |  |  | MIC [11]: 0.82 µM (≈ 0.251 µg/mL); MIC [12]: 1.6 µM (≈ 0.49 µg/mL); MIC [13]: 105 µM (≈ 32.2 µg/mL); MIC [15]: 210 µM (≈ 64.3 µg/mL); MIC [16]: > 500 µM; MIC [17]: > 500 µM; MIC [18]: 105 µM (≈ 32.2 µg/mL) |
| O=[N+]([O-])c1cc(-n2nnnc2SCc2ccccc2)cc([N+](=O)[O-])c1 | 8 µM (≈ 2.87 µg/mL) | 0.5 µM (≈ 0.179 µg/mL) | 4 µM (≈ 1.43 µg/mL) | 2 µM (≈ 0.717 µg/mL) | 2 µM (≈ 0.717 µg/mL) | 1 µM (≈ 0.358 µg/mL) | 4 µM (≈ 1.43 µg/mL) | 1 µM (≈ 0.358 µg/mL) | 2 µM (≈ 0.717 µg/mL) | 1 µM (≈ 0.358 µg/mL) |  |
| COc1ccc(CSc2nnc(-c3cc(NC(C)=O)cc([N+](=O)[O-])c3)o2)cc1 | > 500 µM | > 1000 µM | > 500 µM | > 1000 µM | > 1000 µM | > 1000 µM | > 1000 µM | > 1000 µM | > 1000 µM | > 1000 µM |  |
| O=[N+]([O-])c1cc(O)cc(-c2nnc(SCc3ccc(Cl)c(Cl)c3)o2)c1 | > 250 µM | > 250 µM | > 250 µM | > 250 µM | > 250 µM | > 250 µM | > 250 µM | > 250 µM | > 250 µM | > 250 µM |  |
